Numbered stars: 1 amine (or outer) side, 2 acyl side, 3 side chain; on linkers, the order of the positions; unused ones are H or OH. Bridge positions count the residues as written; N and C are the ends. Peptide text beside a SMILES is read from it. I, II: the chains in the order shown. * marks the point of attachment. Tyr(Nα,Nα-allyl2) = C=CCN(CC=C)[C@@H](Cc1ccc(O)cc1)C(=O)*; Ethylenediamine = C(CN[*:2])N[*:1]

The nature of the data set: tolerance in the rat, subcutaneous dose. It is filed as in vivo. How it is done: As an indication of the lack of toxicity of a specific compound of the invention, namely [diallyl-Tyr-Gly-Gly-Phe-Leu-NH-CH2 -]2, that compound is tolerated in the rat at a subcutaneous dose of at least 15 mg./kg.

For `C=CCN(CC=C)[C@@H](Cc1ccc(O)cc1)C(=O)NCC(=O)NCC(=O)N[C@@H](Cc1ccccc1)C(=O)N[C@@H](CC(C)C)C(=O)NCCNC(=O)[C@H](CC(C)C)NC(=O)[C@H](Cc1ccccc1)NC(=O)CNC(=O)CNC(=O)[C@H](Cc1ccc(O)cc1)N(CC=C)CC=C` [Example 1, (diallyl-Tyr-Gly-Gly-Phe-Leu-NH-CH2 -)2 bis-trifluoroacetate] (I: {Tyr(Nα,Nα-allyl2)}-GGFL / II: {Tyr(Nα,Nα-allyl2)}-GGFL; linker I:C-II:C via Ethylenediamine), the tolerated subcutaneous dose entry is on record as “at least 15 mg./kg”.

Values taken from US4476117A, “Dimers of peptide amides” (Imperial Chemical Industries PLC, priority 1982, dated 1984).
